The source of these data is ChEMBL document CHEMBL3880439, “Cyclopentanone and cyclopentanone derivatives as potent activators of HSF-1” (2004).

pIC50: −log10 of the molar value.

Data set [1] in a line: Cytotoxicity against human HeLa cells incubated for 8 hrs measured after 6 hrs by Alamar blue assay. The data set is classed as cell-based. As to conditions: read-out: LC50. For orientation: Alamar Blue is a resazurin reagent that responds to reducing activity.
In a further data set the test system is Respirovirus muris. Kind of data set: Antiviral activity against Sendai virus infected in African green monkey 37RC cells assessed as inhibition of viral replication at 24 hrs by haemagglutinin titration method. The data set is classed as functional. As to conditions: read-out: ID50 (the source's name).
Data set [2] is described as follows: Cytotoxicity against African green monkey 37RC cells by microscopic method. It is filed as cell-based. As to conditions: chlorocebus aethiops.
Data set [3] deals with Heat shock factor protein (Homo sapiens) (UniProt Q00613+Q03933+Q9ULV5). Kind of data set: Activation of HSF in human HeLa cell clone 13B after 8 hrs by luciferase reporter gene assay. The data set is classed as cell-based. (In general: Reporter assays use an easily measured gene product as a stand-in for the process of interest.)
The nature of data set [4]: Cytotoxicity against African green monkey 37RC cells incubated for 8 hrs measured after 6 hrs by neutral red assay. As to conditions: chlorocebus aethiops, read-out: LC50. It is filed as cell-based.
Data set [5] in a line: Toxicity in iv dosed anaesthetized rat assessed as decrease in blood pressure administered as infusion. The data set is classed as organism-based. As to conditions: in vivo.

For the molecule `CCCCC1C=CC(=O)/C1=C/C(C)C` (configuration not stated), the CC50 at 8 h in data set [1] was determined as 506 µM. In addition, the pIC50 in the data set with Respirovirus muris is 6.52. The TD100 in data set [2] came to 10 µM. In data set [3], this molecule gave an AC200 of 13 µM.
On to `CC(C)/C=C1\C(=O)C=CC1NC(=O)c1ccccc1` (configuration not stated), for which the CC50 at 8 h worked out at 4 µM in data set [4] and 50 µM in data set [1]. Also, the pIC50 in the data set with Respirovirus muris was 6.52. The same molecule came in with a TD100 in data set [2] of 10 µM. Further, in data set [3], the AC200 was less than 6.2 µM.
As to `CCOC(=O)NC1C=CC(=O)C1` (configuration not stated), the CC50 at 8 h in data set [4] stood at 104 µM. The same molecule displayed an AC200 in data set [3] of 49 µM.
For the molecule `O=C1C[C@H](Sc2ccc3ccccc3c2)[C@H](NC(=O)Oc2ccccc2)C1`, the CC50 at 8 h in data set [4] turned out to be 183 µM. Also, in data set [3], the AC200 amounted to 28 µM.
Consider `CC(C)(C)OC(=O)NC1C=CC(=O)C1` (configuration not stated), for which, in data set [1], the CC50 at 8 h was more than 800 µM. Further, the pIC50 in the data set on Respirovirus muris was 4.70. Besides, the TD100 in data set [2] turned out to be 100 µM. The molecule further displayed an AC200 in data set [3] of 51 µM.
Consider `O=C1C=CC(NC(=O)c2ccccc2)C1` (configuration not stated), for which the CC50 at 8 h was 59 µM in data set [4] and more than 800 µM in data set [1]. Besides, the pIC50 in the data set with Respirovirus muris was 4.70. In data set [2], this molecule showed a TD100 of 100 µM. In data set [3], the AC200 was found to be 51 µM.
In the same order, the values of `CC(C)/C=C1/C(=O)C=CC1NC(=O)OC(C)(C)C` (configuration not stated) are 4 µM, more than 800 µM, 6.00, 50 µM and 2.8 µM.
For `CC(C)/C=C1/C(=O)C=C[C@H]1NC(=O)OC(C)(C)C`, the CC50 at 8 h is 4 µM in data set [4] and more than 800 µM in data set [1]. In addition, the pIC50 with Respirovirus muris was 6.40. Moreover, the TD100 in data set [2] is 10 µM. The AC200 in data set [3] came out at 5 µM.
Turning to `Cc1ccc(S(=O)(=O)NC(=O)OC2C=CC(=O)C2)cc1` (configuration not stated), the CC50 at 8 h in data set [1] is more than 800 µM. The molecule also returned an AC200 in data set [3] of 13 µM.
`O=C1C[C@@H](NC(=O)Oc2ccccc2)[C@H](Sc2ccc3ccccc3c2)C1`: in data set [4], the CC50 at 8 h turned out to be 113 µM. Further, the AC200 in data set [3] worked out at 26 µM.
Consider `CC1C=CC(=O)/C1=C/c1ccccc1` (configuration not stated), for which the CC50 at 8 h in data set [1] was found to be 314 µM. In addition, the pIC50 with Respirovirus muris is 6.05. In data set [2], this molecule displayed a TD100 of 50 µM. The same molecule registered an AC200 in data set [3] of 3 µM.
In the case of `CC(C)/C=C1/C(=O)C=C[C@@H]1NC(=O)OC(C)(C)C`, the CC50 at 8 h in data set [4] is 4 µM; in data set [1], more than 800 µM. In addition, in the data set with Respirovirus muris, the pIC50 was 6.00. Moreover, the TD100 in data set [2] is 50 µM. The molecule also had an AC200 in data set [3] of 1.8 µM.
For the molecule `CC(C)/C=C1/C(=O)C=CC1C` (configuration not stated), in data set [1], the CC50 at 8 h was more than 800 µM. The AC200 in data set [3] came to 13 µM.
With `CCCCCC/C=C1/C(=O)C=CC1C` (configuration not stated), the CC50 at 8 h in data set [1] worked out at 234 µM. The molecule further came in with an AC200 in data set [3] of less than 6.2 µM.
In the case of `O=C1C=CC(Nc2ccccc2)C1` (configuration not stated), the CC50 at 8 h in data set [1] is more than 800 µM. Also, the AC200 in data set [3] came out at 27 µM.
For `COC(=O)[C@H](CSC1CC(=O)/C(=C/C(C)C)C1C)NC(=O)OC(C)(C)C` (some centres not stated), in data set [1], the CC50 at 8 h was more than 800 µM. Moreover, the AC200 in data set [3] was found to be 18 µM.
Consider `O=C1C=CC(NC(=O)CCl)C1` (configuration not stated), for which the CC50 at 8 h in data set [4] came out at 79 µM. In addition, the AC200 in data set [3] was less than 6.2 µM.
With `CCCCC1C=CC(=O)/C1=C/C1CC1` (configuration not stated), the CC50 at 8 h in data set [1] amounted to 239 µM. The molecule also displayed an AC200 in data set [3] of 8 µM.
For the molecule `CCCCC/C=C1/C(=O)C=CC1C` (configuration not stated), the CC50 at 8 h in data set [1] was more than 800 µM. The molecule also came in with an AC200 in data set [3] of more than 100 µM.
Consider `COC(=O)[C@H](CS[C@@H]1CC(=O)C[C@H]1NC(=O)Oc1ccccc1)NC(=O)OC(C)(C)C`, for which, in data set [4], the CC50 at 8 h worked out at 76 µM. Moreover, the AC200 in data set [3] was 13 µM.
With `C[C@H]1C=CC(=O)/C1=C/c1ccc([N+](=O)[O-])cc1`, the CC50 at 8 h in data set [1] was more than 800 µM. For the same molecule, the AC200 in data set [3] was 2 µM.
`CC(C)(C)OC(=O)NC1C=CC(=O)/C1=C/c1ccccc1` (configuration not stated): the values for the CC50 at 8 h in data set [4] and in data set [1] were 33 µM and more than 800 µM, respectively. Further, the pIC50 in the data set on Respirovirus muris is 6.22. Moreover, the TD100 in data set [2] turned out to be 10 µM. In data set [3], this molecule had an AC200 of 1.8 µM.
Turning to `CCCCC[C@H](O)/C=C/[C@H]1[C@H](O)CC(=O)[C@@H]1CCCCCCC(=O)O` [ALPROSTADIL], in data set [5], the Activity entry is recorded as “Toxic”.
Regarding `CCCCC[C@H](O)/C=C/[C@H]1C=CC(=O)[C@@H]1CCCCCCC(=O)O` [PROSTAGLANDIN A1], the Activity entry in data set [5] was “Toxic”.
As to `Cc1cc(C)c(/C=C2/C(=O)C=C[C@@H]2NC(=O)OC(C)(C)C)c(C)c1`, in data set [4], the CC50 at 8 h was 25 µM. Moreover, in data set [3], the AC200 was less than 6.2 µM.
`CC(C)(C)OC(=O)NC1C=CC(=O)/C1=C/c1ccc(Cl)cc1` (configuration not stated): the CC50 at 8 h in data set [4] is 3.4 to 72 µM; in data set [1] it was more than 800 µM. For the same molecule, the pIC50 in the data set on Respirovirus muris was 6.22. The molecule also had a TD100 in data set [2] of 10 µM. In data set [3], this molecule had an AC200 of 2 µM.
Take `CCCCC1C=CC(=O)/C1=C/CC(C)C` (configuration not stated): in data set [1], the CC50 at 8 h amounted to 227 µM. Also, the pIC50 with Respirovirus muris was 6.52. This molecule had a TD100 in data set [2] of 50 µM. In data set [3], this molecule registered an AC200 of 13 µM.
As to `CC(C)(C)OC(=O)N[C@@H](CS[C@@H]1CC(=O)/C(=C/c2ccccc2)[C@H]1NC(=O)OC(C)(C)C)C(=O)O`, in data set [4], the CC50 at 8 h amounted to 25 µM. In data set [3], this molecule came in with an AC200 of less than 6.2 µM.
Turning to `O=C1C=CC(NC(=O)Oc2ccccc2)C1` (configuration not stated), the CC50 at 8 h in data set [4] came out at 74 µM. Besides, the AC200 in data set [3] came to 10 µM.
As to `CCOC(=O)N(C(=O)OC(C)(C)C)C1C=CC(=O)C1` (configuration not stated), in data set [4], the CC50 at 8 h came out at 233 µM. This molecule also returned an AC200 in data set [3] of 18 µM.
